Data on 31 compounds can be found in ChEMBL document CHEMBL1201862, “PubChem BioAssay data set” (2004).

Test [1] is described as follows: NIH-3T3 fibroblast cytotoxicity, dose response, cytotoxicity control, cell-based, fluorescence, Alamar Blue, secondary assay (AID 2327).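 Note: NIH-3T3 mouse fibroblasts cultured with fluconazole at 8 µg/mL.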 It is filed as functional.
Test [2] is described as follows: luciferase reporter signal suppression in cells – H4 neuroglioma cells, luminescence, dose response (AID 1990). It is filed as functional, cell-based.
The nature of test [3]: Luminescence Cell-Based Dose Response HTS to Identify Inhibitors of 5'UTR Stem-Loop Driven Prion Protein mRNA Translation in H4 Neuroglioblastoma Cells. [Related pubchem assays: 1827 (Project Summary), 1813 (Primary HTS)]. It is filed as functional.
Test [4] in a line: alpha-synuclein stem-loop luciferase translation blockers – H4 neuroglioma cells, luminescence, confirmation (AID 1988). It is filed as functional, cell-based.
Test [5] is described as follows: fluconazole-exposed Candida albicans growth modulators – fluorescence, retest, confirmation (AID 2467). It is filed as functional, cell-based.
Test [6] addresses T1, Polyadenylate-binding protein 1 (Homo sapiens, UniProt P11940). Briefly: MLLE binding blockers, Cy5 peptide tracer – biochemical, fluorescence polarization, Cy5-PAM2 peptide, secondary, miRNA deadenylation inhibitor project, dose response (AID 602260). It is filed as functional. The note with it: read-out: IC50_Mean.
Test [7] deals with T1, Polyadenylate-binding protein 1. As to the kind of experiment: MLLE domain peptide-binding blockers, IC50 – biochemical, fluorescence polarization, FITC-PAM2 peptide, dose response (AID 602259). Format: functional. Particulars: read-out: IC50_Mean.
Test [8] in a line: non-specific 3'UTR reporter inhibition in Clone20-Shn3RL – cell-based, Renilla luciferase, cherry-picked, counter-screen for Shn3 inhibitor project, dose response (AID 624133). It is filed as functional.
Test [9] deals with FAD-linked sulfhydryl oxidase ALR (Homo sapiens, UniProt P55789). As to the kind of experiment: ALR-catalysed DTT oxidation blockers – biochemical, H2O2 detection, luminescence, cherry-pick, dose response (AID 493248).
In test [10] the target is T2, Ubiquitin-conjugating enzyme E2 N (Homo sapiens, UniProt P61088).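 Note: Dose-response confirmation in a TR-FRET assay detecting UBC13-driven polyubiquitin chain formation, inhibition measured.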
T2 sequence (P61088 whole entry): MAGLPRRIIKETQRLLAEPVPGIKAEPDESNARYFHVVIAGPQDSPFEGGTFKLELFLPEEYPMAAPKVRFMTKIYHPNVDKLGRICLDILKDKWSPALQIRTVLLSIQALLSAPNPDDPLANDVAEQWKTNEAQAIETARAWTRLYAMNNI
It is filed as functional.

Test [11] is described as follows: Luminescence Cell-Based Dose Confirmation HTS to Identify Activators of 5'UTR Stem-Loop Driven Alpha-Synuclein mRNA Translation in H4 Neuroglioblastoma Cells. [Related pubchem assays: 1829 (Project Summary), 1814 (Primary HTS)]. Format: functional.
Test [12] is described as follows: Luminescence Cell-Based Dose Response HTS to Identify Activators of Luciferase Translation or Activity in H4 […] Cells. [Related pubchem assays: 1829 (Project Summary), 1814 (Primary HTS)]. It is filed as functional.
In test [13] the test system is H4. Briefly: Luminescence Cell-Based Dose Response HTS to Identify Activators of 5'UTR Stem-Loop Driven Prion Protein mRNA Translation in H4 Neuroglioblastoma Cells. [Related pubchem assays: 1829 (Project Summary), 1814 (Primary HTS)]. Format: functional. The note with it: Homo sapiens.
The test system of test [14] is Streptococcus sp. 'group A'. Briefly: Streptococcus pyogenes SK(-)GAS viability under kanamycin – luminescence, BacTiterGlo, confirmation, counter-screen for streptokinase expression inhibitor project, dose response (AID 1900). Format: functional, organism-based.
Test [15] is described as follows: viability of PTEN-deleted HCT116 cells – cell-based, HCT116 PTEN knockout, dose response (AID 1047).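 Note: HCT116 colon tumor cells with PTEN knocked out; cells exposed to compound for 60 hours before readout; potency for loss of cell viability measured by luminescence.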 Format: functional.
Test [16] can be described thus: viability of HCT116 lacking mutant beta-catenin – cell-based, human colon tumor, dose response (AID 1045).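 Note: HCT116 colon tumor cells with beta catenin knocked out; cells exposed to compound for 60 hours.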 Format: functional.
Test [17] relates to Streptococcus. Briefly: GAS UMAA2166 growth inhibition – luminescence, BacTiterGlo, counter-screen for streptokinase expression inhibitor project, dose response (AID 1915).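 Note: potency for reduction of bacterial viability or growth.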 It is filed as functional, organism-based.
Test [18] addresses T3, Streptokinase A (Streptococcus pyogenes serotype M1, UniProt P10520).
T3 sequence (P10520 whole entry): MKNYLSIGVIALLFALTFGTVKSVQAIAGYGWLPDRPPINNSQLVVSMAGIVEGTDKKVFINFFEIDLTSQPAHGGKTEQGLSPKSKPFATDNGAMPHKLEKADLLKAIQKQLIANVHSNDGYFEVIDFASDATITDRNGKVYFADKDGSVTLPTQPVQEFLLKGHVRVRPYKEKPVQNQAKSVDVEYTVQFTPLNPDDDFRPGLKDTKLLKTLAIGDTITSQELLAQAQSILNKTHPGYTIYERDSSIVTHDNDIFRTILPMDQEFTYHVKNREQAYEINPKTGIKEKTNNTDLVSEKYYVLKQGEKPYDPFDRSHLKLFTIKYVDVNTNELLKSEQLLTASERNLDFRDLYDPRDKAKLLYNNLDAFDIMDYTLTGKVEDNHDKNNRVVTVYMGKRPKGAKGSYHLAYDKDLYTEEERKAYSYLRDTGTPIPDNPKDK
As to the kind of experiment: viability-normalized secreted streptokinase activity reduction – plasminogen activation absorbance, OD405, dose response (AID 1914).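 Note: secreted streptokinase activity via plasminogen activation per viability signal from cell pellet.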 Format: functional, Streptococcus pyogenes M1 GAS.

Test [19] addresses T4, Corticotropin-releasing factor receptor 2/Corticotropin-releasing factor-binding protein (Homo sapiens, UniProt P24387+Q13324).
T4 sequence (Q13324 whole entry): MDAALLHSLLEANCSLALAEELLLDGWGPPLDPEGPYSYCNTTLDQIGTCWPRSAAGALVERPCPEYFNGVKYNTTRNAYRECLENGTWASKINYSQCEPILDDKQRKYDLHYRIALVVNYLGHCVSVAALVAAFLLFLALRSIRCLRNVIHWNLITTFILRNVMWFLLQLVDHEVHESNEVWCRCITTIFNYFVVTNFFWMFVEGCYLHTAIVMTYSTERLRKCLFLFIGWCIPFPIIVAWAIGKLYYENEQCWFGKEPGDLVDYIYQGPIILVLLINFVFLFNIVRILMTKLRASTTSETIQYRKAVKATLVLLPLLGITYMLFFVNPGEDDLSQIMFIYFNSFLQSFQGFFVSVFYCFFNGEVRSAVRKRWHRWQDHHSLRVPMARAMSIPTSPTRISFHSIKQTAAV
T4 sequence (P24387 whole entry): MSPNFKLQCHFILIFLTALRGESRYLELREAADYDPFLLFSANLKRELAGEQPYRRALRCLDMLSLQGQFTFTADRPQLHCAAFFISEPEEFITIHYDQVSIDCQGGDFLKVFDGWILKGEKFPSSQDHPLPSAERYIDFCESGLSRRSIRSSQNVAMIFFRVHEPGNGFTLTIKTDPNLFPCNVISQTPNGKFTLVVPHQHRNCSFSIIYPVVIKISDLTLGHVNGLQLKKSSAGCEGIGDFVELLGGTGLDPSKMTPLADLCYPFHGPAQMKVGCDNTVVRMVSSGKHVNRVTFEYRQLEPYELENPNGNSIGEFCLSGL
Briefly: Dose Response confirmation of uHTS hits for small molecule antagonists of the CRF-binding protein and CRF-R2 receptor complex. Format: functional. The note with it: read-out: IC50_Mean.

Test [20] concerns the target T4, Corticotropin-releasing factor receptor 2/Corticotropin-releasing factor-binding protein. As to the kind of experiment: activators of CRF receptor 2 with binding protein – uHTS hits, confirmation (AID 602473). Format: functional. The note with it: read-out: EC50_Mean.

Activity calls are given as the source filed them. A value given as a limit tells only on which side of the number the result lay.

Sequence of FAD-linked sulfhydryl oxidase ALR (P55789 whole entry): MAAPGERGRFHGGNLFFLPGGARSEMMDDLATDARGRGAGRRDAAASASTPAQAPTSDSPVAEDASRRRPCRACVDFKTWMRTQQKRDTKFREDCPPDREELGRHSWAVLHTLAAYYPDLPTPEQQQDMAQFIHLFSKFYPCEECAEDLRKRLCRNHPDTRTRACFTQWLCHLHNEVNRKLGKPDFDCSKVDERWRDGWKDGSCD
T1 sequence (P11940 whole entry, the tested form may be a part): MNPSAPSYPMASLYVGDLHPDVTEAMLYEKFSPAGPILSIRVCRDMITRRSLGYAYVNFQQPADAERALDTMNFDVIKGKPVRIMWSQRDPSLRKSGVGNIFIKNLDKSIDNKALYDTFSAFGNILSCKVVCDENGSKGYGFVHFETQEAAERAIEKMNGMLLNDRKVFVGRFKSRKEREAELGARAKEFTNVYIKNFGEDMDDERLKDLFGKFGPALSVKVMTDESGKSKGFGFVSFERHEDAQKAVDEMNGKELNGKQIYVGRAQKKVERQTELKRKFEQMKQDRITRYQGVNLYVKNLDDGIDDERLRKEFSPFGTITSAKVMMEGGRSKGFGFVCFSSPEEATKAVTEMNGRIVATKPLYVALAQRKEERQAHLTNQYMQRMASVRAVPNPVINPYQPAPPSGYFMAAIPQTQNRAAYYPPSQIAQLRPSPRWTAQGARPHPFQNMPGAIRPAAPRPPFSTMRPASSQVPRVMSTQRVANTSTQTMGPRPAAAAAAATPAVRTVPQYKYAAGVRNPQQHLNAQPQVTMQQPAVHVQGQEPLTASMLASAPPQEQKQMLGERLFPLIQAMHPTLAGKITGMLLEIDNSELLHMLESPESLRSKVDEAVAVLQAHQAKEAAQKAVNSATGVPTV

Regarding `COc1ccc(-c2n(C)c3ccccc3[n+]2CC(=O)OC2CC(C)CCC2C(C)C)cc1` (stereo not given), the EC50 is 17.4 µM (inconclusive) in [1]; 8.73 µM (active) in test [2]; 10.9 µM (active) in test [3]; 8.61 µM (active) in test [4]; 0.25 µM (active) in [5].

Take `O=C(c1oc2ccccc2c1CSCc1ccccc1)N1CCN(c2ncccn2)CC1`: the values for the IC50 in test [6] and in [7] were > 66 µM (inactive) and 38.5 µM (inactive), respectively.

For `CC(C)NC(=S)N/N=C/c1ccc(C(C)(C)C)cc1`, the EC50 in test [1] was 91.3 µM (inconclusive); in test [5], > 38 µM (not active).

With `COc1cccc(C(=O)NC2=NCCS2)c1OC`, the IC50 in test [6] and in [7] was > 66 µM (inactive) each time.

Regarding `CC(Cc1cccs1)NC(=O)Nc1ccc(F)cc1` (stereo not given), the AC50 in test [8] is 28.8 µM (active).

`O=C(NNC(=O)c1ccccc1O)c1ccc(Cl)c(S(=O)(=O)N2CCCCC2)c1`: the AC50 in test [9] was 56.4 µM (active).

In the case of `Cc1ccc2[nH]c(CCc3ccc(N)cc3)nc2c1`, in test [9], the concentration at half-maximal activity (AC50) is 0.018 µM (active).

In the case of `CCn1c(C)nc2cc(C(=O)NN=C(S)Nc3ccc(Cl)cc3Cl)ccc21`, the EC50 in test [1] was > 160 µM (inactive); in [5], 6.98 µM (active).

`CC(C)Oc1ccc(Cl)cc1Nc1nc(NCCO)nc(N2CCCC2)n1`: in test [10], the IC50 is > 20 µM (inactive).

With `Cc1nn(C)c(C(=O)NC(=S)Nc2ccc([N+](=O)[O-])cc2)c1Cl`, the IC50 in test [6] and in test [7] was > 66 µM (inactive) throughout.

On to `CCN(CC)c1ccc(/C=N/NC(=O)Nc2nonc2N)cc1`, for which the EC50 was 98.8 µM (active) in test [11], 7.18 µM (active) in test [12] and 30.9 µM (active) in [13]. Also, in test [9], the half-maximal activity concentration (AC50) is 1.38 µM (active).

Regarding `CCOC(=O)c1c(CN2CCN(c3ccccc3)CC2)oc2ccc(O)cc12`, in [10], the IC50 was > 20 µM (inactive).

In the case of `O=C(CSc1nc(-c2ccccc2)cs1)Nc1nccs1`, the figures for the EC50 in test [1] and in [5] were > 160 µM (inactive) and > 38 µM (not active), respectively.

With `Cc1ccc(NC(=S)c2nc3ccccc3[nH]2)cc1`, the EC50 in [1] was > 160 µM (inactive); in test [14], 3.7 µM (active); in test [5] it was > 38 µM (not active); in test [15] it was 26.3 µM (active); in [16], 19.2 µM (active); in [17], 7.64 µM (active).

For the compound `Cc1cc(C)n(N=C(S)NC2CCCC2)c(=O)c1C#N`, the IC50 in [6] and in [7] was > 66 µM (inactive) each time.

As to `COc1cccc(N2C(=O)CC(N3CCc4ccccc43)C2=O)c1` (stereo not given), in [9], the half-maximal activity concentration (AC50) is 1.21 µM (active).

For `O=C(c1cccc(F)c1)N1CCC(c2nc3ccccc3s2)CC1`, the concentration at half-maximal activity (AC50) in test [9] is 0.433 µM (active).

As to `CC[C@@H](C)[C@@H]1CN([C@@H](CN2CCC[C@H]2CN2C(N)=NC[C@@H]2Cc2ccccc2)C(C)C)C(=N)N1CCCC1CCCC1`, in test [10], the IC50 was > 20 µM (inactive).

In the case of `CC(C)C[C@H](NC(=O)c1[nH]cnc1C(=O)N[C@@H](CCCCN)C(=O)OC(C)(C)C)C(=O)OC(C)(C)C`, the IC50 in test [10] is > 20 µM (inactive).

With `OCC(O)CN=C(S)NC1CCCCC1` (stereo not given), the IC50 in test [6] and in [7] was > 66 µM (inactive) throughout.

For the compound `COc1cc(Nc2c([N+](=O)[O-])nn(-c3ccc4c(c3)OCCO4)[n+]2[O-])cc(OC)c1`, the EC50 in test [14] is 2.35 µM (active); in test [18], > 150 µM (not active); in [15], 2.29 µM (active); in [16], 1.78 µM (active); in [17], 19 µM (active).

On to `OCCNc1nc(Nc2cc(Cl)ccc2OC2CCCC2)nc(N2CCCC2)n1`, for which the IC50 in test [10] is > 20 µM (inactive).

With `N#Cc1cnn(-c2ccccc2)c1NC(=O)CN1CCN(c2ccccc2)CC1`, in test [9], the AC50 was 13.4 µM (active).

Turning to `CC(C(=O)NC1C(=O)N2C(C(=O)O)=C(CSc3nnnn3C)CSC12)n1cc(Cl)cn1` (stereo not given), the EC50 in [14] was 0.161 µM (active); in test [17], 0.343 µM (active). Moreover, the IC50 in test [6] and in test [7] was > 66 µM (inactive) in each case.

Take `CCOC(=O)c1c(NC(=O)C2Cc3ccccc3C(=O)O2)sc2c1CCCC2` (stereo not given): the EC50 in [1] is > 160 µM (inactive); in [5], > 38 µM (not active).

Turning to `COc1ccc(NC(=O)CSc2nnc(-c3ccccc3C)n2N)cc1`, the IC50 in test [6] and in test [7] was > 66 µM (inactive) throughout.

In the case of `CCOC(=O)c1nc(Nc2ccc(C)cc2)c2ccccc2n1`, the IC50 in test [6] and in [7] was > 66 µM (inactive) each time.

Take `CN(C(=O)CN1C(=O)/C(=C/c2ccccc2Cl)SC1=S)C1CCS(=O)(=O)C1` (stereo not given): the values for the IC50 in test [6], in [19] and in test [7] were > 66 µM (inactive), > 47.1 µM (inactive) and > 66 µM (inactive), respectively. In [20], the EC50 was > 53 µM (inactive).

For the compound `CC(=O)n1cc([C@H]2C=C(C(=O)Nc3ccccc3)O[C@@H](OCCCCO)C2)c2ccccc21`, in test [10], the IC50 was > 20 µM (inactive).

`CN(C)c1ccc(/C=N/NC(=O)CCc2c[nH]c3ccccc23)cc1`: in [9], the half-maximal activity concentration (AC50) is 2.11 µM (active).

With `O=C(O/N=C1/CCSc2ccccc21)c1ccc(F)cc1`, the EC50 in [1] was 30.1 µM (active); in [5], > 38 µM (not active).
